Source: PMC10048907, “Antennal Transcriptome Analysis of Olfactory Genes and Characterization of Odorant Binding Proteins in Odontothrips loti (Thysanoptera: Thripidae)” (International Journal of Molecular Sciences, 2023)
Read-outs that look alike come from different tables or passages of the source.

Assays:
recombinant O.lotOBP6 = experiment: Fluorescence competitive binding assay with 1-NPN probe; design: species or system Odontothrips loti; conditions: for IC50: 1× PBS pH 7.2~7.4, room temperature, triplicates, read-out: IC50 (concentration of ligand halving the initial fluorescence value of 1-NPN)
Procedure: Fluorescence was measured on a F-7000 fluorescence spectrophotometer (Hitachi, Tokyo, Japan) at room temperature with a 1 cm light path quartz cuvette and 10 nm slits for both excitation and emission. The fluorescent probe N-phenyl-1-naphthylamine (1-NPN) was excited at 337 nm, and emission was recorded between 370 and 520 nm. The pure protein was dissolved with 1× PBS (pH 7.2~7.4) at a final concentration of 2 μM. The ligands and 1-NPN were dissolved in methanol at the concentration of 1 mM.
To measure the affinity of 1-NPN to O.lotOBP6, a 2 μM solution of protein in 2 mL 1× PBS was titrated with 1-NPN to final concentrations of 0.25~8 μM. The affinity of ligands was measured by the titration of the O.lotOBP6/1-NPN complex at the concentration of 2 μM by adding ligand to final concentrations of 0.25~10 μM. The dissociation constants of the competitors were calculated by the equation Ki = IC50/(1 + [1-NPN]/K1-NPN), where IC50 is the concentration of ligands halving the initial fluorescence value of 1-NPN, [1-NPN] is the free concentration of 1-NPN, and K1-NPN is the dissociation constant of the complex O.lotOBP6/1-NPN. Experiments were performed in triplicates. GraphPad Prism 7.0 was used to perform nonlinear regression analysis on the standard curve and the dissociation curve.

adult O. loti = experiment: Y-tube olfactometer choice tests with volatiles; format: in vivo, Odontothrips loti; conditions: volatile 10 ng/μL in paraffin oil vs paraffin oil control, chi-square test; for Response of male adult O. loti in Y-tube olfactometer: male adults
Procedure: In the behavioral assays, the female and male adults were reared together, while 3–5 days old female and male adults were collected separately by reproductive morphology. Eleven ligands with high binding affinities to O.lotOBP6/1-NPN complex based on fluorescence binding assays were used in the test. The responses of female and male O. loti to 11 volatiles (Table 3) were measured derived from M. sativa (Liu Y-Q, unpublished data) or semiochemicals previously used in Y-tube olfactometer bioassays. The glass Y-tube consisted of a stem and two arms (10 cm long, 1 cm in diameter) separated from each other at an angle of 75°. Air drawn into the olfactometer was first purified by active charcoal, moistened by distilled water in a gas-washing bottle, and split into two streams, with a flow rate of 50 mL min^−1. Two glass flasks (100 mL) provided test and control odor sources. Connections between the components of the olfactometer apparatus were made with Teflon tubes. Olfactometer experiments were carried out in a dark room at 26 ± 1 °C. Light was provided by a LED light (28 W), which was placed at the Y end of the olfactometer. The volatile sample of 10 ng/μL was dissolved in paraffin oil as the test odor source, with the control sample being paraffin oil. A single O. loti was introduced to the base tube of the Y-tube and observed for 5 min. When the test thrip entered a half-length of either arm of the Y-tube and stayed for 1 min, the choice was recorded. […] After five test thrips were tested, the odor sources were swapped to avoid directional effects in the apparatus. To avoid the effects of travelling residual odors of test thrips, ten test thrips tests were followed by a new Y-tube, which was cleaned with 75% ethanol and oven dried at 60 °C for 30 min. Sixty biological replicates were carried out for each female or male treatment. Results were analyzed by Chi-square test using IBM SPSS 22.

[1] = system: Megalurothrips usitatus adults; design: method as in PMID 32246573; conditions: field trials, cited from earlier work
[2] = O.lotOBP6/1-NPN complex 2 μM, calculated from IC50, read-out: Ki (dissociation constant, Ki = IC50/(1 + [1-NPN]/K1-NPN))
[3] = competitive fluorescence binding curves, read-out: Ki (high binding affinities with the O.lotOBP6/1-NPN complex)

SMILES	IC50 (recombinant O.lotOBP6; O.lotOBP6/1-NPN complex 2 μM) [µM]	Ki (recombinant O.lotOBP6; [2]) [µM]	Ki (recombinant O.lotOBP6; [3]) [µM]	further results
O=Cc1ccccc1O [Salicylaldehyde]	1.1 ± 0.01	0.45	< 10	
COc1ccc(C=O)cc1 [p-Anisaldehyde]	4.59 ± 0.64	1.89 ± 0.26	< 10	
CC12CCC(CC1)C(C)(C)O2 [Eucalyptol]	2.06 ± 0.05	0.85 ± 0.02	< 10	
CCCCCCCCC=O [Nonanal]	1.4 ± 0.09	0.58 ± 0.04	< 10	
O=Cc1ccccc1 [Benzaldehyde]	1.62 ± 0.12	0.67 ± 0.05	< 10	
CC(=O)OC/C=C(\C)CC/C=C(\C)CCC=C(C)C [(2E,6E)-farnesyl acetate]				Duration of attraction effect ([1]; dose of 60 μg): at least 6 days; Attractiveness to adults compared to the control [1]: significantly more attractive
c1ccc(Nc2cccc3ccccc23)cc1 [1-NPN, N-phenyl-1-naphthylamine, reference compound]				Kd (recombinant O.lotOBP6; 2 μM protein titrated with 1-NPN 0.25~8 μM, Scatchard equation, read-out: Dissociation constant of recombinant O.lotOBP6 protein to 1-NPN): 1.05 µM
CCCCCCCCCCCCC [Tridecane]	2.6 ± 0.44	1.07 ± 0.18	< 10	
CCOC(=O)c1cccnc1 [Ethyl nicotinate]	> 50			
C=CCCC=O [4-Pentenal]	> 50			
Cc1cccc(C)c1 [m-Xylene]	8.41 ± 0.31	3.47 ± 0.13	< 10	

Continued, in another order:

IC50 (recombinant O.lotOBP6; O.lotOBP6/1-NPN complex 2 μM) [µM]	Ki (recombinant O.lotOBP6; [2]) [µM]	Ki (recombinant O.lotOBP6; [3]) [µM]	SMILES	further results
> 50			CC1=CCC2CC1C2(C)C (stereo not drawn) [α-Pinene]	
6.92 ± 0.24	2.86 ± 0.1	< 10	C=CC(C)(O)CCC=C(C)C (centres unmarked) [Linalool]	
0.34 ± 0.03	0.14 ± 0.01	< 10	C=C(C)C1CCC(C)C(=O)C1 (centres unmarked) [p-Menth-8-en-2-one]	Response of female adult O. loti in Y-tube olfactometer (adult O. loti; female adults): significantly attracted; Response of male adult O. loti in Y-tube olfactometer (adult O. loti): significantly attracted
> 50			C=C(C)[C@H]1CC=C(C)CC1 [D-Limonene]	
> 50			Cc1cc(C(C)(C)C)c(O)c(C(C)(C)C)c1 [Butylated hydroxytoluene]	
3.8 ± 0.31	1.57 ± 0.13	< 10	CCCCC(CC)CO (centres unmarked) [2-Ethyl-1-hexanol]	
5.58 ± 0.38	2.3 ± 0.16	< 10	CC/C=C\CCOC(=O)CCC [(Z)-3-Hexenyl butyrate]	Response of male adult O. loti in Y-tube olfactometer (adult O. loti): significantly attracted
